What was measured:
[1] = Cytoprotective activity in H2O2-induced human ECV304 cells assessed as proliferation rate incubated for 24 hrs prior to H2O2-challenge measured after 12 hrs by MTT assay; assay type: functional, cell-based; details: ECV-304
[2] = Cytoprotective activity in H2O2-induced human ECV304 cells assessed as proliferation rate at 12.5 uM incubated for 24 hrs prior to H2O2-challenge measured after 12 hrs by MTT assay relative to control; assay type: functional; details: ECV-304, read-out: Activity
[3] = Cytoprotective activity in H2O2-induced human ECV304 cells assessed as proliferation rate at 25 uM incubated for 24 hrs prior to H2O2-challenge measured after 12 hrs by MTT assay relative to control; assay type: functional; details: ECV-304, read-out: Activity
[4] = Cytoprotective activity in H2O2-induced human ECV304 cells assessed as proliferation rate at 50 uM incubated for 24 hrs prior to H2O2-challenge measured after 12 hrs by MTT assay relative to control; assay type: functional; details: ECV-304, read-out: Activity
[5] = Cytoprotective activity in H2O2-induced human ECV304 cells assessed as proliferation rate at 100 uM incubated for 24 hrs prior to H2O2-challenge measured after 12 hrs by MTT assay relative to control; assay type: functional; details: ECV-304, read-out: Activity
[6] = Antiplatelet activity in rabbit platelet rich plasma assessed as inhibition of ADP-induced aggregation treated for 5 mins prior to ADP-challenge; assay type: functional; details: Oryctolagus cuniculus
[7] = Antiplatelet activity in rabbit platelet rich plasma assessed as inhibition of ADP-induced aggregation at 0.05 mM treated for 5 mins prior to ADP-challenge relative to control; assay type: functional; details: Oryctolagus cuniculus
[8] = Antiplatelet activity in rabbit platelet rich plasma assessed as inhibition of ADP-induced aggregation at 0.1 mM treated for 5 mins prior to ADP-challenge relative to control; assay type: functional; details: Oryctolagus cuniculus
[9] = Antiplatelet activity in rabbit platelet rich plasma assessed as inhibition of ADP-induced aggregation at 0.4 mM treated for 5 mins prior to ADP-challenge relative to control; assay type: functional; details: Oryctolagus cuniculus
[10] = Antiplatelet activity in rabbit platelet rich plasma assessed as inhibition of ADP-induced aggregation at 0.2 mM treated for 5 mins prior to ADP-challenge relative to control; assay type: functional; details: Oryctolagus cuniculus
[11] = system: ECV-304; experiment: Ratio of ligustrazine EC50 to compound EC50 for human ECV304 cells; assay type: functional

| SMILES | EC50 [1] [µM] | growth at 12.5 µM [2] [%] | growth at 25 µM [3] [%] | growth at 50 µM [4] [%] | growth at 100 µM [5] [%] | IC50 [6] [mM] | inhibition at 50 µM [7] [%] | inhibition at 100 µM [8] [%] | inhibition at 400 µM [9] [%] | inhibition at 200 µM [10] [%] | Ratio EC50 [11] |
| --- | --- | --- | --- | --- | --- | --- | --- | --- | --- | --- | --- |
| Cc1nc(C)c(COc2ccc3ccc(=O)oc3c2)nc1C | 140 | 38.8 | 42 | 44.2 | 46.6 | 1.3 | 21.7 | 25 | 39.2 | 35.1 |  |
| Cc1nc(C)c(CSc2nnnn2-c2ccccc2)nc1C |  | -135 | -119 | -78.4 | -136 | > 2 | -4.07 | 12.3 | 9.33 | 4.93 |  |
| Cc1nc(C)c(CSc2nnnn2-c2cccc3ccccc23)nc1C |  |  |  |  |  | > 2 | 2.25 | 10.2 | 13.1 | 5.75 |  |
| CSc1snc(OCc2nc(C)c(C)nc2C)c1C#N | > 100000 |  | 25.2 | 160 |  | 1.5 | 3.36 | 13.5 | 32.2 | 22.6 |  |
| Cc1nc(C)c(Cn2nnc3ccccc32)nc1C | > 100000 | 23.2 | 25.1 | -96.5 | -178 | 1.8 | -2.21 | 7.23 | 28.3 | 16.9 |  |
| Cc1nc(C)c(Cn2cnc3ccccc32)nc1C |  | -91.8 | -13.8 | 0.25 |  | 1.9 | -0.97 | 11 | 30.9 | 13.1 |  |
| Cc1nc(C)c(CNC(=O)CN2CCCC2=O)nc1C | 1300 | -35.8 | 14.5 | 23.4 | 26.4 | 1.2 | 3.23 | 10.4 | 36 | 19.6 |  |
| Cc1nc(C)c(COC(=O)CCCC[C@@H]2CCSS2)nc1C | 4 | -60 | 71.4 | 160 | 206 | > 2 | 18.8 | 13.4 | 27.6 | 29 | 150 |
| C=CCSSCc1nc(C)c(C)nc1C | 1100 | 13 | -17.6 | 15 | 51.1 | 1.3 | 16.7 | 18 | 38.1 | 30.4 |  |
| C=CCc1ccc(OCc2nc(C)c(C)nc2C)c(OC)c1 | 200 | 22 | 28.2 | 30.1 | 36 | > 2 | -4.29 | 1.45 | 6.42 | 12.3 |  |
| Cc1nc(C)c(COc2ccc3c(C)cc(=O)oc3c2)nc1C | 140 | 12 | 21 | 25.8 | 36.6 | 0.92 | 2.27 | 8.73 | 40.1 | 17.2 |  |
| Cc1nc(C)c(CSc2nnc(-c3cccs3)n2N)nc1C | 330 | 36.2 | 37.4 | 38.2 | 40.2 | 0.81 | 0.15 | 13.4 | 38.5 | 23.2 |  |
| Cc1nc(C)c(CSc2nc(C)c(CC(=O)O)s2)nc1C | 150 | 44.9 | 46.2 | 47 | 48.1 | 0.62 | 27.5 | 35 | 46.9 | 38.3 |  |
| Cc1nc(C)c(CSc2nnnn2C)nc1C |  |  | -180 | -77 | -117 | > 2 | 1.53 | 4.04 | 9.95 | 13.5 |  |
| Cc1nc(C)c(CSc2nc3ccccc3s2)nc1C | 360 | 4.33 | 7.95 | 9.51 | 17.2 | 1.6 | 5.12 | 13.4 | 33.4 | 20.9 |  |
| Cc1nc(C)c(CSc2nnc(-c3ccco3)n2N)nc1C | 420 | 19 | 21.3 | 23.5 | 25.8 | 0.94 | -2.62 | 10.4 | 35.6 | 20 |  |
| CCOC(=O)c1ccccc1OCc1nc(C)c(C)nc1C | 1000 | 17.3 | 18.1 | 19.2 | 20 | 2 | 8.7 | 10.8 | 21.2 | 16.8 |  |
| CCOC(=O)c1ccc(OCc2nc(C)c(C)nc2C)c(OC)c1 | 3200 | 14.9 | 15.5 | 15.8 | 16 | > 2 | 9.7 | 3.1 | -3.31 | 7.48 |  |
| Cc1nc(C)c(COc2ccccc2C(=O)O)nc1C | 610 | 14.1 | 17.4 | 18.2 | 20 | 0.4 | 15.6 | 32 | 51.7 | 34.6 |  |
| COc1cc(C(=O)O)ccc1OCc1nc(C)c(C)nc1C | 810 | 15.1 | 16.4 | 18.4 | 19 | > 2 | 11.2 | 1.01 | 4.41 | -11.2 |  |
| Cc1nc(C)c(C)nc1C [LIGUSTRAZINE] | 600 | 10.4 | 12.7 | 22.1 | 42.8 |  |  |  |  |  |  |
| O=C(O)CCCCC1CCSS1 (stereo not drawn) [LIPOIC ACID, ALPHA] | 68 | 30.5 | -12.3 | 48.7 | 58.1 |  |  |  |  |  |  |
| O=C(O)/C=C/c1ccc(Cn2ccnc2)cc1 [OZAGREL] |  |  |  |  |  | 0.36 | 23.3 | 27.3 | 55.3 | 45.4 |  |
